Reference: patent US20040067531A1, “Methods of modulating protein tyrosine kinase function with substituted indolinone compounds” (SUGEN, INC., priority 1997, published 2004)
Read-outs that look alike come from different tables or passages of the source.

How the values were obtained:
[1] = test system: FGF-induced BrdU incorporation; assay: FGF-induced BrdU incorporation assay; assay type: cell-based; details: read-out: FGF-Induced BrdU Incorp. IC50
Procedure: PDGF-, FGF-, and EGF-Induced BRDU Incorporation Assay
(§1) 1. Cells were seeded at 8000 cells/well in DMEM, 10% CS, 2 mM Gln in a 96 well plate. Cells were incubated overnight at 37° C. in 5% CO2.
(§2) 2. After 24 hours, the cells were washed with PBS, and then were serum starved in serum free medium (0% CS DMEM with 0.1% BSA) for 24 hours.
(§3) 3. On day 3, ligand (PDGF=3.8 nM, prepared in DMEM with 0.1% BSA) and test compounds were added to the cells simultaneously. The negative control wells received serum free DMEM with 0.1% BSA only; the positive control cells received the ligand (PDGF) but no test compound. Test compounds were prepared in serum free DMEM with ligand in a 96 well plate, and serially diluted for 7 test concentrations.
(§4) 4. After 20 hours of ligand activation, diluted BrdU labeling reagent (1:100 in DMEM, 0.1% BSA) was added and the cells were incubated with BrdU (final concentration=10 μM) for 1.5 hours.
(§5) 5. After incubation with labeling reagent, the medium was removed by decanting and tapping the inverted plate on a paper towel. FixDenat solution was added (50 μL/well) and the plates were incubated at room temperature for 45 minutes on a plate shaker.
(§6) 6. The FixDenat solution was thoroughly removed by decanting and tapping the inverted plate on a paper towel. Milk was added (5% dehydrated milk in PBS, 200 μL/well) as a blocking solution and the plate was incubated for 30 minutes at room temperature on a plate shaker.
(§7) 7. The blocking solution was removed by decanting and the wells were washed once with PBS. Anti-BrdU-POD solution (1:100 dilution in PBS, 1% BSA) was added (100 μL/well), and the plate was incubated for 90 minutes at room temperature on a plate shaker.
(§8) 8. The antibody conjugate was thoroughly removed by decanting and rinsing the wells 5 times with PBS, and the space was dried by inverting and tapping on a paper towel.
(§9) 9. TMB substrate solution was added (100 μL/well) and incubated for 20 minutes at room temperature on a plate shaker until color development was sufficient for photometric detection.
(§10) 10. The absorbance of the samples were measured at 410 nm (in “dual wavelength” mode with a filter reading at 490 nm, as a reference wavelength) on a Dynatech ELISA plate reader.
(§11) The IC50 values were measured for several of the compounds of the invention. These values are depicted in Table 10.

HUV-EC-C cells; VEGF = assay: HUVEC-VEGF 3H-thymidine incorporation assay; assay type: cell-based, human
Procedure: The following protocol is used to measure a compound's activity against VEGF and aFGF, all of which are expressed by HUVEC cells.
1. […] After cells have detached from the flask, add an equal volume of assay medium and transfer to a 50 mL sterile centrifuge tube (Fisher Scientific; catalogue no. 05-539-6).
2. Wash the cells with about 35 mL assay medium in the 50 mL sterile centrifuge tube by adding the assay medium, centrifuge for 10 minutes at approximately 200×g, aspirate the supernatant, and resuspend with 35 mL D-PBS. Repeat the wash two more times with D-PBS, resuspend the cells in about 1 mL assay medium/15 cm^2 of tissue culture flask. Assay medium consists of F12K medium (Gibco BRL; catalogue no. 21127-014)+0.5% heat-inactivated fetal bovine serum. Count the cells with a Coulter Counter® (Coulter Electronics, Inc.) and add assay medium to the cells to obtain a concentration of 0.8-1.0×10^5 cells/mL.
3. Add cells to 96-well flat-bottom plates at 100 μL/well or 0.8-1.0×10^4 cells/well; incubate ˜24h at 37° C., 5% CO^2.
1. Make up two-fold drug titrations in separate 96-well plates, generally 50 μM on down to 0 μM. Use the same assay medium as mentioned in day 0, step 2 above. Titrations are made by adding […] of drug at 200 μM (4× the final well concentration) to the top well of a particular plate column. Since the stock drug concentration is usually 20 mM in DMSO, the 200 μM drug concentration contains 2% DMSO.
Therefore, diluent made up to 2% DMSO in assay medium (F12K+0.5% fetal bovine serum) is used as diluent for the drug titrations in order to dilute the drug but keep the DMSO concentration constant. Add this diluent to the remaining wells in the column at 60 μL/well. Take 60 μL from the 120 μL of 200 μM drug dilution in the top well of the column and mix with the 60 μL in the second well of the column. Take 60 μL from this well and mix with the 60 μL in the third well of the column, and so on until two-fold titrations are completed. When the next-to-the-last well is mixed, take 60 μL of the 120 μL in this well and discard it. Leave the last well with 60 μL of DMSO/media diluent as a non-drug-containing control. Make 9 columns of titrated drug, enough for triplicate wells each for 1) VEGF (obtained from Pepro Tech Inc., catalogue no. 100-200, 2) endothelial cell growth factor (ECGF) (also known as acidic fibroblast growth factor, or aFGF) (obtained from Boehringer Mannheim Biochemica, catalogue no. 1439 600); or, 3) human PDGF B/B (1276-956, Boehringer Mannheim, Germany) and assay media control. ECGF comes as a preparation with sodium heparin.
2. Transfer 50 μL/well of the drug dilutions to the 96-well assay plates containing the 0.8-1.0×10^4 cells/100 μL/well of the HUV-EC-C cells from day 0. and incubate ˜2 h at 37° C., 5% CO2.
3. […] As with the drugs, the growth factor concentrations are 4× the desired final concentration. Use the assay media from day 0 step 2 to make the concentrations of growth factors. Incubate approximately 24 hours at 37° C., 5% CO2. Each well will have 50 μL drug dilution, 50 μL growth factor or media, and 100 μL cells, =200 μL/well total. Thus the 4× concentrations of drugs and growth factors become 1× once everything has been added to the wells.
1. Add ^3H-thymidine (Amersham; catalogue no. TRK-686) at 1 μCi/well (10 μL/well Of 100 μCi/mi solution made up in RPMI media +10% heat-inactivated fetal bovine serum) and incubate μ24 h at 37° C., 5% CO2. RPMI was obtained from Gibco BRL, catalogue no. 11875-051.
1. Freeze plates overnight at […]
1. Thaw plates and harvest with a 96-well plate harvester (Tomtec Harvester 96®) onto filter mats (Wallac; catalogue no. 1205-401); read counts on a Wallac Betaplate™ liquid scintillation counter.
The IC50 values were measured for several of the compounds of the invention.

[2] = test system: 3T3 cell line genetically engineered to express human PDGF-R; assay: PDGF-induced BrdU incorporation assay; assay type: cell-based; details: 3T3 cells expressing human PDGF-R, read-out: PDGF-Induced BrdU Incorp. IC50
Procedure: (1) PDGF: human PDGF B/B; 1276-956, Boehringer Mannheim, Germany
(8) 3T3 cell line genetically engineered to express human PDGF-R.
as §1, §2, §3, §4, §5, §6, §7, §8, §9, §10, §11

[3] = test system: HUV-EC-C cells; aFGF (ECGF); assay: HUVEC-aFGF 3H-thymidine incorporation assay; assay type: cell-based, human
Procedure: Use the same assay medium as mentioned in day 0, step 2 above. Titrations are made by adding 90 μL/well of drug at 200 μM (4× the final well concentration) to the top well of a particular plate column. Since the stock drug concentration is usually 20 mM in DMSO, the 200 μM drug concentration contains 2% DMSO.
Therefore, diluent made up to 2% DMSO in assay medium (F12K+0.5% fetal bovine serum) is used as diluent for the drug titrations in order to dilute the drug but keep the DMSO concentration constant. Add this diluent to the remaining wells in the column at 60 μL/well. Take 60 μL from the 120 μL of 200 μM drug dilution in the top well of the column and mix with the 60 μL in the second well of the column. Take 60 μL from this well and mix with the 60 μL in the third well of the column, and so on until two-fold titrations are completed. When the next-to-the-last well is mixed, take 60 μL of the 120 μL in this well and discard it. Leave the last well with 60 μL of DMSO/media diluent as a non-drug-containing control. Make 9 columns of titrated drug, enough for triplicate wells each for 1) VEGF (obtained from Pepro Tech Inc., catalogue no. […] ECGF comes as a preparation with sodium heparin.
In triplicate, add 50 μL/well of 80 μg/mL VEGF, 20 ng/mL ECGF, or media control to each drug condition. As with the drugs, the growth factor concentrations are 4× the desired final concentration. Use the assay media from day 0 step 2 to make the concentrations of growth factors.
Freeze plates overnight at 20° C.

O=C(O)CCc1c(C=C2C(=O)Nc3ccccc32)[nH]c2c1CCCC2 [IN-001, 3-[2-(2-Oxo-1,2-dihydro-indol-3-ylidenemethyl)-4,5,6,7-tetrahydro-1H-indol-3-yl]-propionic acid]
IC50 [1]: 18.2 µM
IC50 (HUV-EC-C cells; VEGF; Homo sapiens): 1.9 nM
IC50 ([2]; NIH3T3, PDGF 3.8 nM): 2.9 µM
IC50 ([3]; Homo sapiens): 15.9 nM

O=C(O)CCc1c(C=C2C(=O)Nc3ccc(Cl)cc32)[nH]c2c1CCCC2 [IN-002, 3-[2-(5-Chloro-2-oxo-1,2-dihydro-indol-3-ylidenemethyl)-4,5.6,7-tetrahydro-1H-indol-3-yl]-propionic acid]
IC50 ([1]; FGF-induced): 23.6 µM
IC50 (HUV-EC-C cells; VEGF): 0.04 nM
IC50 ([2]; PDGF […]): 1.1 µM
IC50 [3]: 250 nM

O=C(O)CCc1c(C=C2C(=O)Nc3ccc(Br)cc32)[nH]c2c1CCCC2 [IN-003, 3-[2-(5-Bromo-2-oxo-1,2-dihydro-indol-3-ylidenemethyl)-4,5,6,7-tetrahydro-1H-indol-3-yl]-propionic acid]
IC50 [1]: 15.7 µM
IC50 (HUV-EC-C cells; VEGF; Homo sapiens): 0.3 nM
IC50 ([2]; NIH3T3, PDGF 3.8 nM): 1.4 µM
IC50 ([3]; Homo sapiens): 76 nM

Cc1cccc2c1C(=Cc1[nH]c3c(c1CCC(=O)O)CCCC3)C(=O)N2 [IN-004, 3-[2-(4-Methyl-2-oxo-1,2-dihydro-indol-3-ylidenemethyl)-4,5,6,7-tetrahydro-1H-indol-3-yl]-propionic acid]
IC50 [1]: 26.7 µM
IC50 (HUV-EC-C cells; VEGF; Homo sapiens): 0.94 nM
IC50 ([2]; NIH3T3, PDGF 3.8 nM): 13.5 µM
IC50 ([3]; Homo sapiens): 2.5 nM

Cc1ccc2c(c1)C(=Cc1[nH]c3c(c1CCC(=O)O)CCCC3)C(=O)N2 [IN-005, 3-[2-(5-Methyl-2-oxo-1,2-dihydro-indol-3-ylidenemethyl)-4,5,6,7-tetrahydro-1H-indol-3-yl]-propionic acid]
IC50 [1]: 30.1 µM
IC50 (HUV-EC-C cells; VEGF; Homo sapiens): 1 nM
IC50 ([2]; NIH3T3, PDGF 3.8 nM): 14.2 µM
IC50 ([3]; Homo sapiens): 4.4 nM

COc1ccc2c(c1)NC(=O)C2=Cc1[nH]c2c(c1CCC(=O)O)CCCC2 [IN-007, 3-[2-(6-Methoxy-2-oxo-1,2-dihydro-indol-3-ylidenemethyl)-4,5,6,7-tetrahydro-1H-indol-3-yl]-propionic acid]
IC50 [1]: 42.1 µM
IC50 (HUV-EC-C cells; VEGF; Homo sapiens): 20 nM
IC50 ([2]; NIH3T3, PDGF 3.8 nM): 3 µM
IC50 ([3]; Homo sapiens): 1600 nM

CN(C)C(=O)CCc1c(C=C2C(=O)Nc3ccccc32)[nH]c2c1CCCC2 [IN-008, N,N-Dimethyl-3-[2-(2-oxo-1,2-dihydro-indol-3-ylidenemethyl)-4,5,6,7-tetrahydro-1H-indol-3-yl]-propionamide]
IC50 [1]: > 50 µM
IC50 (HUV-EC-C cells; VEGF; Homo sapiens): < 3 nM
IC50 ([2]; NIH3T3, PDGF 3.8 nM): 4.9 µM
IC50 ([3]; Homo sapiens): 2200 nM

CN(C)CCCc1c(C=C2C(=O)Nc3ccccc32)[nH]c2c1CCCC2 [IN-009, 3-[3-(3-Dimethylamino-propyl)-4,5,6,7-tetrahydro-1H-indol-2-ylmethylene]-1,3-dihydro-indol-2-one]
IC50 [1]: > 50 µM
IC50 (HUV-EC-C cells; VEGF; Homo sapiens): 290 nM
IC50 ([2]; NIH3T3, PDGF 3.8 nM): 4.2 µM
IC50 ([3]; Homo sapiens): 1700 nM

NC(=O)CCc1c(C=C2C(=O)Nc3ccccc32)[nH]c2c1CCCC2 [IN-010, 3-[2-(2-Oxo-1,2-dihydro-indol-3-ylidenemethyl)-4,5,6,7-tetrahydro-1H-indol-3-yl]-propionamide]
IC50 [1]: > 50 µM
IC50 (HUV-EC-C cells; VEGF; Homo sapiens): < 30 nM
IC50 ([2]; NIH3T3, PDGF 3.8 nM): 3.5 µM
IC50 ([3]; Homo sapiens): 100 nM

O=C1Nc2ccccc2C1=Cc1[nH]c2c(c1CCC(=O)N1CCOCC1)CCCC2 [IN-011, 3-[3-(3-Morpholin-4-yl-3-oxo-propyl)-4,5 6,7-tetrahydro-1H-indol-2-ylmethylene]-1,3-dihydro-indol-2-one]
IC50 [1]: > 50 µM
IC50 (HUV-EC-C cells; VEGF; Homo sapiens): 220 nM
IC50 ([2]; NIH3T3, PDGF 3.8 nM): 8.6 µM
IC50 ([3]; Homo sapiens): 9200 nM

CNC(=O)CCc1c(C=C2C(=O)Nc3ccccc32)[nH]c2c1CCCC2 [IN-012, N-Methyl-3-[2-(2-oxo-1,2-dihydro-indol-3-ylidenemethyl)-4,5,6,7-tetrahydro-1H-indol-3-yl]-propionamide]
IC50 [1]: > 50 µM
IC50 (HUV-EC-C cells; VEGF; Homo sapiens): < 30 nM
IC50 ([2]; NIH3T3, PDGF 3.8 nM): 3.9 µM
IC50 ([3]; Homo sapiens): 160 nM

O=C(CCc1c(C=C2C(=O)Nc3ccccc32)[nH]c2c1CCCC2)NCCN1CCOCC1 [IN-013, N-(2-Morpholin-4-yl-ethyl)-3-[2-(2-oxo-1,2-dihydro-indol-3-ylidenemethyl)-4,5,6,7-tetrahydro-1H-indol-3-yl]-propionamide]
IC50 [1]: > 50 µM
IC50 (HUV-EC-C cells; VEGF; Homo sapiens): < 30 nM
IC50 ([2]; NIH3T3, PDGF 3.8 nM): 5.2 µM
IC50 ([3]; Homo sapiens): 2100 nM

Cc1c[nH]c(C=C2C(=O)Nc3ccccc32)c1CCC(=O)O [IN-026, 3-[4-Methyl-2-(2-oxo-1,2-dihydro-indol-3-ylidenemethyl)-1H-pyrrol-3-yl]-propionic acid]
IC50 [1]: 25 µM
IC50 ([2]; NIH3T3, PDGF 3.8 nM): 20 µM
IC50 ([3]; Homo sapiens): 1100 nM

Cc1c[nH]c(C=C2C(=O)Nc3ccc(Cl)cc32)c1CCC(=O)O [IN-027, 3-[2-(5-Chloro-2-oxo-1,2-dihydro-indol-3-ylidenemethyl)-4-methyl-1H-pyrrol-3-yl]-propionic acid]
IC50 (HUV-EC-C cells; VEGF; Homo sapiens): < 70 nM
IC50 ([3]; Homo sapiens): 1400 nM

COc1ccc2c(c1)NC(=O)C2=Cc1[nH]cc(C)c1CCC(=O)O [IN-028, 3-[2-(6-Methoxy-2-oxo-1,2-dihydro-indol-3-ylidenemethyl)-4-methyl-1H-pyrrol-3-yl]-propionic acid]
IC50 [1]: > 50 µM
IC50 (HUV-EC-C cells; VEGF; Homo sapiens): 620 nM
IC50 ([2]; NIH3T3, PDGF 3.8 nM): 8.7 µM
IC50 ([3]; Homo sapiens): 4800 nM

Cc1c[nH]c(C=C2C(=O)Nc3ccc(Br)cc32)c1CCC(=O)O [IN-031, 3-[2-(5-Bromo-2-oxo-1,2-dihydro-indol-3-ylidenemethyl)-4-methyl-1H-pyrrol-3-yl]-propionic acid]
IC50 [1]: > 50 µM
IC50 (HUV-EC-C cells; VEGF; Homo sapiens): 40 nM
IC50 ([2]; NIH3T3, PDGF 3.8 nM): 8.5 µM
